# Values joined by “and” are separate entries in the source; they are usually repeats but may differ in a detail not shown here. Equal entries are not always repeated. Toxic doses and inconclusive results are not listed.
# Tested on: CD2F1 mice, L1210 leukemia ip, survival T/C
# Assay: NCI In Vivo Anticancer Drug Screen. Data for tumor model L1210 Leukemia (intraperitoneal) in CD2F1 (CDF1) mice
# Conditions: higher = longer survival
# In short: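 Compound-dosed mice with transplantable tumor versus matched vehicle controls; endpoint ratio T/C reported.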
# [1] = endpoint: mean survival time, dose: 100.0 mg/kg/injection, schedule: Q04DX003 (ip), vehicle: saline
# [2] = endpoint: mean survival time, dose: 200.0 mg/kg/injection, schedule: Q04DX003 (ip), vehicle: saline
# [3] = endpoint: mean survival time, dose: 400.0 mg/kg/injection, schedule: Q04DX003 (ip), vehicle: saline
compound,measurement,setting,value
CCC1(O)C(=O)OCc2c1cc1n(c2=O)Cc2cc3ccc(O)cc3nc2-1 (stereo not drawn),T/C,"endpoint: median survival time, dose: 3.75 mg/kg/injection, schedule: Q04DX002 (ip), vehicle: Klucel (hydroxypropylcellulose) (HPC)",121 % of control
same,T/C,"endpoint: median survival time, dose: 7.5 mg/kg/injection, schedule: Q04DX002 (ip), vehicle: Klucel (hydroxypropylcellulose) (HPC)",272 % of control
same,T/C,"endpoint: median survival time, dose: 15.0 mg/kg/injection, schedule: Q04DX002 (ip), vehicle: Klucel (hydroxypropylcellulose) (HPC)",190 % of control
same,T/C,"endpoint: median survival time, dose: 30.0 mg/kg/injection, schedule: Q04DX002 (ip), vehicle: Klucel (hydroxypropylcellulose) (HPC)",152 % of control
same,T/C,"endpoint: median survival time, dose: 60.0 mg/kg/injection, schedule: Q04DX002 (ip), vehicle: Klucel (hydroxypropylcellulose) (HPC)",154 % of control and 357 % of control
CC(=O)C(C(=O)Nc1ccccc1)c1cc(NS(=O)(=O)c2ccccc2)ccc1O (stereo not drawn),T/C,"endpoint: mean survival time, dose: 100.0 mg/kg/injection, schedule: Q04DX003 (ip), vehicle: saline with Tween-80",102 % of control
same,T/C,"endpoint: mean survival time, dose: 200.0 mg/kg/injection, schedule: Q04DX003 (ip), vehicle: saline with Tween-80",96 % of control
same,T/C,"endpoint: mean survival time, dose: 400.0 mg/kg/injection, schedule: Q04DX003 (ip), vehicle: saline with Tween-80",91 % of control
NCC(=O)NCC(=O)OCCO,T/C,"endpoint: mean survival time, dose: 50.0 mg/kg/injection, schedule: Q01DX009 (ip), vehicle: water",97 % of control
same,T/C,"endpoint: mean survival time, dose: 100.0 mg/kg/injection, schedule: Q01DX009 (ip), vehicle: water",93 % of control
same,T/C,"endpoint: mean survival time, dose: 200.0 mg/kg/injection, schedule: Q01DX009 (ip), vehicle: water",91 % of control
same,T/C,"endpoint: mean survival time, dose: 400.0 mg/kg/injection, schedule: Q01DX009 (ip), vehicle: water",90 % of control
O=C(c1ccccc1)c1ccc([N+](=O)[O-])cc1,T/C,"endpoint: mean survival time, dose: 100.0 mg/kg/injection, schedule: Q04DX003 (ip), vehicle: saline sonified",92 % of control
same,T/C,"endpoint: mean survival time, dose: 200.0 mg/kg/injection, schedule: Q04DX003 (ip), vehicle: saline sonified",95 % of control
same,T/C,"endpoint: mean survival time, dose: 400.0 mg/kg/injection, schedule: Q04DX003 (ip), vehicle: saline sonified",100 % of control
C[N+]1(C)CCc2ccccc2C1Cc1ccc(Oc2ccc(CC3c4ccccc4CC[N+]3(C)C)cc2)cc1 (stereo not drawn),T/C,"endpoint: mean survival time, dose: 0.2 mg/kg/injection, schedule: Q01DX009 (ip), vehicle: saline",93 % of control
same,T/C,"endpoint: mean survival time, dose: 0.39 mg/kg/injection, schedule: Q01DX009 (ip), vehicle: saline",96 % of control
CC1(C)N=C(N)N=C(N)N1c1ccc(OCCCOc2ccc(S(=O)(=O)F)cc2)c(Cl)c1,T/C,"endpoint: mean survival time, dose: 6.25 mg/kg/injection, schedule: Q01DX009 (ip), vehicle: saline",104 % of control
same,T/C,"endpoint: mean survival time, dose: 12.5 mg/kg/injection, schedule: Q01DX009 (ip), vehicle: saline",98 % of control
same,T/C,"endpoint: mean survival time, dose: 25.0 mg/kg/injection, schedule: Q01DX009 (ip), vehicle: saline",104 % of control
CC(C)(C)CC(C)(C)c1ccc(OCCOc2ccc(NS(=O)(=O)c3ccc(N)c([N+](=O)[O-])c3)cc2)cc1,T/C,"endpoint: mean survival time, dose: 50.0 mg/kg/injection, schedule: Q01DX009 (ip), vehicle: Klucel (hydroxypropylcellulose) (HPC)",101 % of control
same,T/C,"endpoint: mean survival time, dose: 100.0 mg/kg/injection, schedule: Q01DX009 (ip), vehicle: Klucel (hydroxypropylcellulose) (HPC)",101 % of control
same,T/C,"endpoint: mean survival time, dose: 200.0 mg/kg/injection, schedule: Q01DX009 (ip), vehicle: Klucel (hydroxypropylcellulose) (HPC)",98 % of control
CC1CC[N-]CC1.CC1CC[N-]CC1.[Cl][Pt+2][Cl],T/C,"endpoint: mean survival time, dose: 6.25 mg/kg/injection, schedule: Q01DX001 (ip), vehicle: saline with Tween-80",101 % of control
same,T/C,"endpoint: mean survival time, dose: 12.5 mg/kg/injection, schedule: Q01DX001 (ip), vehicle: saline with Tween-80",111 % of control
same,T/C,"endpoint: mean survival time, dose: 25.0 mg/kg/injection, schedule: Q01DX001 (ip), vehicle: saline with Tween-80",112 % of control
CCN(CC)N1C(=O)[N+](CC)(CC)N=C1[O-],T/C,[1],102 % of control
same,T/C,[2],95 % of control
same,T/C,[3],101 % of control
Nc1cc(=O)[nH]c(=S)n1-c1ccccn1,T/C,[1],101 % of control
same,T/C,[2],95 % of control
same,T/C,[3],97 % of control
CC(C)(C)C(=O)CC1(O)C(=O)Nc2cccc(C(F)(F)F)c21 (stereo not drawn),T/C,"endpoint: mean survival time, dose: 100.0 mg/kg/injection, schedule: Q04DX002 (ip), vehicle: saline with Tween-80",102 % of control
same,T/C,"endpoint: mean survival time, dose: 200.0 mg/kg/injection, schedule: Q04DX002 (ip), vehicle: saline with Tween-80",109 % of control
same,T/C,"endpoint: mean survival time, dose: 400.0 mg/kg/injection, schedule: Q04DX002 (ip), vehicle: saline with Tween-80",102 % of control
CCOC(=O)C1CCCNC1=O (stereo not drawn),T/C,"endpoint: mean survival time, dose: 100.0 mg/kg/injection, schedule: Q01DX001 (ip), vehicle: saline",101 % of control
same,T/C,"endpoint: mean survival time, dose: 200.0 mg/kg/injection, schedule: Q01DX001 (ip), vehicle: saline",94 % of control
same,T/C,"endpoint: mean survival time, dose: 400.0 mg/kg/injection, schedule: Q01DX001 (ip), vehicle: saline",95 % of control
O=c1nc(NCC23CC4CC(CC(C4)C2)C3)ccn1C1OC(CO)C(O)C1O (stereo not drawn),T/C,"endpoint: median survival time, dose: 12.5 mg/kg/injection, schedule: Q01DX005 (ip), vehicle: distilled water + Tween-80",100 % of control
same,T/C,"endpoint: median survival time, dose: 25.0 mg/kg/injection, schedule: Q01DX005 (ip), vehicle: distilled water + Tween-80",101 % of control
same,T/C,"endpoint: median survival time, dose: 50.0 mg/kg/injection, schedule: Q01DX005 (ip), vehicle: distilled water + Tween-80",101 % of control
same,T/C,"endpoint: median survival time, dose: 100.0 mg/kg/injection, schedule: Q01DX005 (ip), vehicle: distilled water + Tween-80",94 % of control
same,T/C,"endpoint: median survival time, dose: 200.0 mg/kg/injection, schedule: Q01DX005 (ip), vehicle: distilled water + Tween-80",91 % of control

# Source: PubChem BioAssay AID256 (DTP/NCI, 2004)
